Reference: patent US12325710B2, “Substituted 1,2,3,4,5,6-hexahydroazepino[4,5-b]indoles for treating brain disorders” (priority 2019, dated 2025)
“Also recorded” adds a separate entry of the source.

Key:
larval zebrafish = test: Larval zebrafish movement activity during a battery of light and acoustic stimuli
Text: Stimuli applied over time are indicated under the heatmaps. Colors indicate bright LED light of respective colors, black traces represent the waveforms of acoustic stimuli, and gray vertical lines indicate physical tapping as secondary acoustic stimuli.
Response is […] proportional to classification accuracy; 0-20% indicates no ability and 100% indicates perfect classification. […] The solid line denotes the median and the shading denotes a 95th percentile confidence interval calculated by bootstrap. N=8 wells/condition (64 animals/condition).

C57/BL6J mice = test: Two-bottle choice alcohol consumption (binge drinking); type: in vivo, mouse
Description: Alcohol Consumption. Male C57/BL6J mice (6-8 weeks old) were obtained from The Jackson Laboratory (Bar Harbor, ME) and were individually housed in a reverse light/dark cycle room (lights on […]). Temperature was kept constant at 22±2° C., and relative humidity was maintained at 50±5%. Mice were given access to food and tap water ad libitum. After one week of habituation to the vivarium, the two-bottle choice alcohol-drinking paradigm was conducted as described previously. For 7 weeks, mice were given intermittent access in their home cage to alcohol. On Mondays, Wednesdays, and Fridays, two bottles were made available for 24 h—one containing 20% ethanol and another containing only water. On Tuesdays, Thursdays, Saturdays, and Sundays, the animals were only given access to water. After 7 weeks, mice were administered TBG (50 mg/kg) or vehicle (saline) via intraperitoneal injection 3 h before the beginning of a drinking session. Ethanol (g/kg) and water (ml/kg) intake were monitored during the first 4 h (initial binge), the first 24 h, and the second 24 h. Next, the animals were only given water for 48 h before the start of another drinking session when ethanol and water consumption was monitored. The placement (right or left) of the bottles was altered in each session to control for side preference. Spillage was monitored using an additional bottle in a nearby unused cage. Alcohol preference was calculated as the ratio between alcohol/(water+alcohol). Mice were tested using a counterbalanced, within subject design with one week of drug-free alcohol drinking regimen between treatments. One mouse was excluded because the bottle was leaking.

zebrafish = test: Zebrafish developmental toxicity assay; type: in vivo
C57BL/6J mice = test: Head-twitch response (HTR) assay; details: intraperitoneal; fumarate salts; 5-MeO-DMT 10 mg/kg as positive control
[1] = system: rat embryonic cortical neurons (DIV20); test: Spinogenesis in mature cortical cultures (DIV20); type: cell-based; details: DIV20, treatment for 24 h
Description: Spinogenesis Experiments. Spinogenesis experiments were performed as previously described with the exception that cells were treated on DIV19 and fixed 24 h after treatment on DIV20. (Ly, C. et al., 2018) The images were taken on a Nikon HCA Confocal microscope a with a 100×/NA 1.45 oil objective. DMSO and ketamine (10 μM) were used as vehicle and positive controls, respectively.

5-HT2C = target: T1, 5-HT2C (Homo sapiens, UniProt P28335); test: 5-HT2C Gq-mediated calcium flux functional assay; type: cell-based
T1 sequence (P28335 33-458): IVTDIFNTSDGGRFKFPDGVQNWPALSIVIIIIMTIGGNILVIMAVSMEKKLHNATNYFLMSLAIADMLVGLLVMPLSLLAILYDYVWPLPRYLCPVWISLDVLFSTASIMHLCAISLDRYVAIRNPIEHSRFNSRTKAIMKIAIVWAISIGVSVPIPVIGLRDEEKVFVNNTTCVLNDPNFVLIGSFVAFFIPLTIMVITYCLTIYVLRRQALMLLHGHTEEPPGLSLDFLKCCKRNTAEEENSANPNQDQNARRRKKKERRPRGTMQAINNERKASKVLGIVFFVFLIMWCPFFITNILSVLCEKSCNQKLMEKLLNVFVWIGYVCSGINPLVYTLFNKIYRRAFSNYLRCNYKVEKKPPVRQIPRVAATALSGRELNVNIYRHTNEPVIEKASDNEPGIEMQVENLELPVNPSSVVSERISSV
Description: Serotonin and Opioid Receptor Functional Assays. Functional assay screens at 5-HT and opioid receptors were performed in parallel using the same compound dilutions and 384-well format high-throughput assay platforms. Assays assessed activity at all human isoforms of the receptors, except where noted for the mouse 5-HT2A receptor. Receptor constructs in pcDNA vectors were generated from the Presto-Tango GPCR library with minor modifications. All compounds were serially diluted in drug buffer (HBSS, 20 mM HEPES, pH 7.4 supplemented with 0.1% bovine serum albumin and 0.01% ascorbic acid) and dispensed into 384-well assay plates using a FLIPR^TETRA (Molecular Devices). Every plate included a positive control such as 5-HT (for all 5-HT receptors), DADLE (DOR), salvinorin A (KOR), and DAMGO (MOR). For measurements of 5-HT2A, 5-HT2B, and 5-HT2C Gq-mediated calcium flux function, HEK Flp-In 293 T-Rex stable cell lines (Invitrogen) were loaded with Fluo-4 dye for one hour, stimulated with compounds and read for baseline (0-10 seconds) and peak fold-over-basal fluorescence (5 minutes) at 25° C. on the FLIPR^TETRA. For measurement of 5-HT6 and 5-HT7a functional assays, Gs-mediated cAMP accumulation was detected using the split-luciferase GloSensor assay in HEKT cells measuring luminescence on a Microbeta Trilux (Perkin Elmer) with a 15 min drug incubation at 25° C. […]

[2] = system: rat embryonic cortical neurons; test: Dendritogenesis (Sholl analysis) in cultured cortical neurons; type: cell-based
Description: Embryonic rat cortical neurons were treated for a short period of time (1 h) followed by a suitable growth period (71 h) to measure the psychoplastogenic effects of the compounds described herein. […] Therefore, the effects of ibogalogs 8-17 on dendritic growth was assessed.
Dendritogenesis Experiments. For the dendritogenesis experiments conducted using cultured cortical neurons, timed pregnant Sprague Dawley rats were obtained from Charles River Laboratories (Wilmington, MA). Full culturing, staining, and analysis details were performed as previously described. (Dunlap, L. et al., 2019)

5-HT2B receptors = 5-HT2B receptors (Homo sapiens, UniProt P41595); test: 5-HT2B Gq-mediated calcium flux functional assay; type: cell-based
5-HT2B receptors, sequence (P41595 whole entry, canonical isoform): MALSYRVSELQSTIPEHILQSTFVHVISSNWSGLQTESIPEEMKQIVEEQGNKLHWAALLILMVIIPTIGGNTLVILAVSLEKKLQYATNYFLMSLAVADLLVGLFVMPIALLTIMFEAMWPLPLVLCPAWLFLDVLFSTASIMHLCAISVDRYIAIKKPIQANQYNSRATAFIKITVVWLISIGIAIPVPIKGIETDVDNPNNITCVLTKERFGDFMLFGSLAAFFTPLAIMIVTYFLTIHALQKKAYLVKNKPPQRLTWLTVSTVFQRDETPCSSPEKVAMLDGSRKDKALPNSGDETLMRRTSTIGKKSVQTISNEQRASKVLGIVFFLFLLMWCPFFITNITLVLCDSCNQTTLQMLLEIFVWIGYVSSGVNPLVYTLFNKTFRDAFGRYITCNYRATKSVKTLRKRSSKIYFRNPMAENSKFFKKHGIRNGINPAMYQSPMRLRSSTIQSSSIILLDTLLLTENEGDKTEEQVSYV
Description: Serotonin and Opioid Receptor Functional Assays. Functional assay screens at 5-HT and opioid receptors were performed in parallel using the same compound dilutions and 384-well format high-throughput assay platforms. Assays assessed activity at all human isoforms of the receptors, except where noted for the mouse 5-HT2A receptor. Receptor constructs in pcDNA vectors were generated from the Presto-Tango GPCR library with minor modifications. All compounds were serially diluted in drug buffer (HBSS, 20 mM HEPES, pH 7.4 supplemented with 0.1% bovine serum albumin and 0.01% ascorbic acid) and dispensed into 384-well assay plates using a FLIPR^TETRA (Molecular Devices). Every plate included a positive control such as 5-HT (for all 5-HT receptors), DADLE (DOR), salvinorin A (KOR), and DAMGO (MOR). For measurements of 5-HT2A, 5-HT2B, and 5-HT2C Gq-mediated calcium flux function, HEK Flp-In 293 T-Rex stable cell lines (Invitrogen) were loaded with Fluo-4 dye for one hour, stimulated with compounds and read for baseline (0-10 seconds) and peak fold-over-basal fluorescence (5 minutes) at 25° C. on the FLIPR^TETRA. For measurement of 5-HT6 and 5-HT7a functional assays, Gs-mediated cAMP accumulation was detected using the split-luciferase GloSensor assay in HEKT cells measuring luminescence on a Microbeta Trilux (Perkin Elmer) with a 15 min drug incubation at 25° C. For 5-HT1A, 5-HT1B, 5-HT1F, MOR, KOR, and DOR functional assays, Gi/o-mediated cAMP inhibition was measured using the split-luciferase GloSensor assay in HEKT cells, conducted similarly as above, but in combination with either 0.3 μM isoproterenol (5-HT1A, 5-HT1B, 5-HT1F) or 1 μM forskolin (MOR, KOR, and DOR) to stimulate endogenous cAMP accumulation. For measurement of 5-HT1D, 5-HT1E, 5-HT4, and 5-HT5A functional assays, β-arrestin2 recruitment was measured by the Tango assay utilizing HTLA cells expressing TEV fused-β-arrestin2, as described previously with minor modifications. […]

COc1ccc2c3c([nH]c2c1)CCN(C)CC3 [TBG]
behavioral phenotype at highest concentration versus lethal control (larval zebrafish; 200 μM): did not produce this phenotype
behavioral phenotype with increasing concentration versus vehicle and lethal control (eugenol, 100 μM) (larval zebrafish; 1 h treatment, concentration-response): do not produce movement responses in larval zebrafish similar to a lethal concentration of eugenol
machine learning classification of movement responses (larval zebrafish; highest concentrations (200 μM)): more similar to vehicle controls than to ibogaine, noribogaine, or lethal controls
EtOH consumption in the days following administration (C57/BL6J mice; TBG 50 mg/kg i.p.): long-lasting decreases in EtOH consumption; also recorded: lower for at least two days
EtOH preference during binge drinking session (C57/BL6J mice; TBG 50 mg/kg i.p.): reduces EtOH consumption and preference
water intake (C57/BL6J mice; TBG 50 mg/kg i.p.): without impacting H2O intake; also recorded: not affected
EtOH consumption during binge drinking session (C57/BL6J mice; first 4 h, TBG 50 mg/kg i.p. 3 h before session): reduces EtOH consumption and preference; also recorded: robustly reduces binge drinking
proportion of viable to non-viable fish (zebrafish; 66 μM, 5 dpf): statistically indistinguishable from vehicle control; also recorded: does not cause developmental toxicity
malformations, mortality, non-viable fish (zebrafish; 100 μM, 2 and 5 dpf): significantly fewer non-viable fish than ibogaine or noribogaine treatments
hallucinogenic potential (head-twitch response) (C57BL/6J mice): did not display hallucinogenic potential
dendritic spine density [1]: increases dendritic spine density to a comparable extent as ibogaine
5-HT2C agonist activity compared to 5-MeO-DMT (5-HT2C): weaker 5-HT1A and 5-HT2C agonist activity
dendritic arbor complexity (Sholl analysis, Nmax) ([2]; DIV6): increased dendritic arbor complexity
effect on dendritic growth after pretreatment with ketanserin (5-HT2A antagonist) ([2]; ketanserin pretreatment): blocked by the 5-HT2A antagonist ketanserin; also recorded: completely abrogated its effects
activity mode at 5-HT2B receptors (5-HT2B receptors): antagonists
